Read-outs that look alike come from different tables or passages of the source.
What was measured:
caspase-9 = experiment: Caspase activity assay in MCF-7 cells; assay type: cell-based, human; conditions: MCF-7, 0-80 μM, 24 h
Description: MDA-MB-231 cells (1 × 10^5 cells per ml) were incubated with different concentrations of andrographolide (0, 15, 30, 45 and 60 μM) for 24 h and then centrifuged to detect caspase-3 and caspase-9 activation using caspase fluoremetric protease assay kit following manufacturer’s instructions. Briefly, cells were lysed in RIPA buffer supplemented with protease inhibitor cocktail and 10 μl lysate were diluted with 10 μl substrate buffer (1:1) containing 100 μM each of fluorogenic substrate, DEVD-AFC and LEHD-AFC for caspase-3 and caspase-9 respectively, and was then incubated for 90 min at 37 °C. Reactions were stopped using 0.2 mM sodium phosphate buffer (pH 7.5) and fluorescence was quantified by a spectrofluorometer (excitation, 405 nm; emission, 505 nm). Experiment was also performed using MCF-7 cells.

[1] = In vivo pharmacokinetic study, plasma LC-MS/MS; parameters: species or system Female BALB/c mice; conditions: for Plasma exposure at 24 h: LLOQ 2.44 ng/ml; for bioavailability: PO 50 mg/kg vs IV 5 mg/kg; for half-life: read-out: Terminal T½ (converted); for AUC(0-t): read-out: AUC(0-8)
Description: Female BALB/c mice, being divided into two groups (n = 6 per group), received andrographolide via oral route (PO) as well as intravenous (IV) bolus dosing at 50 mg/kg (equivalent to 142.73 μmol/kg and dose volume, 10 ml/kg) and 5 mg/kg body weight (equivalent to 14.27 μmol/kg and dose volume, 5 ml/kg) respectively. The formulation was prepared in 10 % DMSO, 10 % Cremophor and 80 % 1/15 (M) Na2HPO4 with dose volume of 10 ml/kg and 5 ml/kg for oral and IV respectively. ~50 μl of blood samples were collected at each time points (0.25, 0.5, 1, 2, 4, 8 and 24 h for PO and 0.08, 0.25, 0.5, 1, 2, 4, 8 and 24 h for IV) into heparinized capillary tubes by piercing the saphenous vein using a disposable needle (26 G). Blood samples were centrifuged at 3000 rpm for 10 min at 4 °C. The resulting plasma samples were stored at –80 °C until bioanalysis.
Analysis of plasma samples were performed using a liquid chromatography tandem mass spectroscopy (API-4000, AB Sciex Instruments, Foster City, CA) attached with the ESI source. The LC system consisted of LC-20ADvp pump (Shimadzu, Kyoto, Japan) and CTC PAL (HTS) autosampler. Liquid chromatography was performed using a Luna C18 column (2 × 30 mm, 5 μ particle) of Phenomenex (Torrance, CA) and the mobile phase consisted of 2 mM ammonium acetate in water (A) and 80: 20 (v/v) MeCN: Solvent A (B). The gradient elution program was as follows: first 60 s only A for washing, then 60 s for gradient up to 100 % B and it was continued for next 60 s. Total run time was 3.5 min with a flow of 0.8 ml/min at room temperature. Samples were detected and quantified using Analyst 1.4.2. Internal standard used was diclofenac.
The concentrations of test samples were determined from the standard curve prepared by spiking 2 μl of working stock in 98 μl of blank plasma along with the quality control samples (low, mid and high). The linear equation of the standard curve was obtained by regressional analysis of the peak area ratio of analyte to internal standard versus nominal concentration with a weighting factor of 1/X2. The calibration curve was linear in the concentration range 2.44 (LLOQ) to 1250 ng/ml.

[2] = female, BALB/c, mouse, plasma, iv, 5 mg/kg, IV at 5 mg/kg, female BALB/c mice
[3] = female, BALB/c, mouse, plasma, po, 50 mg/kg, PO at 50 mg/kg, female BALB/c mice
[4] = mouse, plasma, IV at 5 mg/kg, female BALB/c mice
[5] = mouse, plasma, PO at 50 mg/kg, female BALB/c mice

What does the source list for `C=C1CC[C@@H]2[C@](C)(CO)[C@H](O)CC[C@@]2(C)[C@@H]1C/C=C1/C(=O)OC[C@H]1O` [andrographolide]?
caspase-9 (initiator caspase) activation (caspase-9): activation in a dose-dependent manner; Plasma exposure at 24 h ([1]; IV arm, 5 mg/kg): below lower limit of quantitation; bioavailability ([1]; female BALB/c mice): 9.27 ± 1.69%; Plasma exposure at 24 h ([1]; PO arm, 50 mg/kg): below lower limit of quantitation; CL ([1]; PO at 50 mg/kg, female BALB/c mice): 1045 ± 201.7 mL/min/kg; AUC(0-inf) [1, 2]: 2.51 ± 0.56 µM·h; clearance [1, 2]: 91.8 mL/min/kg; half-life [1, 2]: 1.86 ± 0.21 h; bioavailability ([1]; female, BALB/c, mouse, plasma, oral, 50 mg/kg, female BALB/c mice, read-out: Bioavailability): < 10%; AUC(0-inf) [1, 3]: 2.33 ± 0.42 µM·h; half-life [1, 3]: 3.3 ± 0.35 h; C0 [1, 4]: 14.6 ± 4.04 µM; AUC(0-t) [1, 4]: 1.96 ± 0.38 µM·h; Cmax [1, 5]: 0.73 ± 0.17 µM; Tmax [1, 5]: 0.42 ± 0.14 h; AUC(0-t) [1, 5]: 1.92 ± 0.36 µM·h

— article PMC4833932, “Cytotoxicity and cell cycle arrest induced by andrographolide lead to programmed cell death of MDA-MB-231 breast cancer cell line” (Journal of Biomedical Science, 2016)
